Assay results published in PMC12860560, “Chromosome-level genome assembly of Cornus officinalis reveals the evolution of loganin biosynthesis” (Horticulture Research, 2025).

Target: T1, CrLAMT (Catharanthus roseus, UniProt B2KPR3)
T1 construct: gene LAMT; pBI121 vector, expressed in Nicotiana benthamiana
T1 sequence (B2KPR3 1-371): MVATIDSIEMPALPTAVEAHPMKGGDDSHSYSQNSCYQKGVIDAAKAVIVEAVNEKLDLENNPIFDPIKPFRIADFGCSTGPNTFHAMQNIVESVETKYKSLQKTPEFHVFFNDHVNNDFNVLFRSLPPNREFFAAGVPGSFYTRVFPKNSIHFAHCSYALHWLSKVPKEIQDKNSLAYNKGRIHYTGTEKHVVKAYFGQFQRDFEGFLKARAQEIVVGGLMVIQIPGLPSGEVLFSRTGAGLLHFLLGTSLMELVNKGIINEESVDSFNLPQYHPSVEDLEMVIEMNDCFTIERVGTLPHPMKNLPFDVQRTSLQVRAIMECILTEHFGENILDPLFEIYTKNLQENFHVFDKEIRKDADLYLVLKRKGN
Assay: HPLC of product loganin
Format: cell-based
Details: expressed in N. benthamiana; preparation of the HPLC assay not told

For C[C@@H]1[C@H]2[C@H](O[C@@H]3O[C@H](CO)[C@@H](O)[C@H](O)[C@H]3O)OC=C(C(=O)O)[C@H]2C[C@@H]1O [loganic acid], the “HPLC of product loganin” value was “production of loganin by CaLAMT, CrLAMT, and CoLAMT using loganic acid as the substrate”.
